These are literature values, as cited in patent publication EP4174079B1 (UNIWERSYTET JAGIELLONSKI, priority 2021, dated 2023).

The conditions of the data set: compared with cisplatin.

Take `[Cl][Pt][Cl].c1cn[nH]c1.c1cn[nH]c1` [Cis-PtCl2(pzH)2]: the antitumour activity entry was “significantly lower than cisplatin”.
